Source: patent US20040029908A1, “Tricyclo compounds, a process for their production and a pharmaceutical composition containing the same” (FUJISAWA PHARMACEUTICAL CO., LTD., priority 1984, published 2004)
Values after ≈ are worked out from the molar mass of the structure shown.

Legend:
[1] = system: Antibody formation to sheep erythrocytes (SRBC) in BDF1 mice; assay: Antibody Formation in mice (haemagglutination test); assay type: in vivo, mouse
Experimental: Male BDF1 mice 6 to 8 weeks of age were used for this test. The mice were immunized on day 0 with […] sheep erythrocytes (SRBC) intraperitoneally. Serum aggulutinin titers were determined for each individual animal with sedimentation of erythrocytes by serial two fold dilutions. The titers are expressed as -log2 The FR-900506 substance was administered orally for 5 days from one day before immunization to day 3.

[2] = system: mouse MLR (C57BL/6 responder cells, mitomycin C treated BALB/C stimulator cells); assay: Suppression of in vitro Mixed Lymphocyte Reaction (MLR), 3H-thymidine uptake; assay type: cell-based
Experimental: The MLR test was performed in microtiter plates, with each well containing 5 ×10^5 C57BL/6 responder cells (H-2^b ), 5 ×10^5 mitomycin C treated (25μg/ml mitomycin C at 37° C. for 30 minutes and washed three times with RPMI 1640 medium) BALB/C stimulator cells (H-2^d) in 0.2 ml RPMI 1640 medium supplemented with 10% fetal calf serum, 2mM sodium hydrogen carbonate, penicillin (50 unit/ml) and streptomycin (50 μg/ml) . The cells were incubated at 37 ° C. in humidified atmosphere of 5% carbon dioxide and 95% of air for 68 hours and pulsed with ^3H-thymidine (0.5 μCi) 4 hours before the cells were collected. The object compound of this invention was dissolved in ethanol and further diluted in RPMI 1640 medium and added to the cultures to give final concentrations of 0.1 μg/ml or less.

[3] = system: interleukin 3 and interferones; assay: Lymphokine production in the supernatant of MLR; assay type: cell-based, mouse; conditions: especially y-interferone
Experimental: The mixed lymphocyte reaction (MILR) was performed in microtiter plates, with each well containing 5 ×10^5 C57BL/6 responder cells (H-2^b), 5 ×10^5 mitomycin C treated (25 μg/ml mitomycin C at 37° C. for 30 minutes and washed three times pith RPMI 1640 medium) BALB/C stimulator cells ([…]) in 0.2 ml RPMI 1640 medium supplemented with 10% fetal calf serum, 2mM sodium hydrogen carbonate, penicillin 20 (50 unites/ml) and streptomycin (50 μg/ml) . The cells were incubated at 37° C. in humidified atmosphere of 5% carbon dioxide and 95% of air for 48 hours and the supernatant was collected. The FR-900506 substance was dissolved in ethanol and further diluted in RPMI 1640 medium and added to the cultures to give final concentrations of 0.1 μg/ml or less.

[4] = system: Local Graft-versus-Host Reaction in BDF1 mice; assay: Local Graft-versus-Host Reaction (GvHR) in Mice; assay type: in vivo; conditions: Mus musculus, po; orally for five days; weight difference right and left popliteal lymph nodes, day 7; read-out: ED50 for prevention of the local graft-versus-host reaction
Experimental: The viable spleen cells ([…] cells) from C57BL/6 donors were injected subcutaneously into the right hind foot pad of BDF1 mice to induce local GvHR. The mice were killed 7 days later and both right (injected paw) and left (uninjected paw) popliteal lymph nodes (PLN) were weighed. The GVHR was expressed as the weight difference between right and left PLN. The FR-900506 substance was dissolved in olive oil and administered orally for five days starting on the same day as sensitization.

[5] = system: Type II Collagen-Induced-Arthritis in female Lewis rats; assay: Type II Collagen-Induced-Arthritis in Rats; assay type: in vivo, rat; conditions: observation period of 3 weeks
Experimental: Collagen was dissolved in cold 0.01 M acetic acid at a concentration of 2 mg/ml. The solution was emulsified in an equal volume of incomplete Freund's adjuvant. A total volume of 0.5 ml of the cold emulsion was injected intradermally at several sites on the back and one or two sites into the tail of female Lewis rats. The FR-900506 substance was dissolved in olive oil and administered orally. Control rats immunized with same amount of type II collagen received oral administrations of olive oil alone. Incidences of the arthritis were observed.

ddY mice = assay: Acute toxicities in ddY mice by intraperitoneal injection; assay type: in vivo; conditions: ddY mice, intraperitoneal injection
[6] = system: Plaque Forming Cell (PFC) Response in C3H/He mice; assay: in vivo Plaque Forming Cell (PFC) Response in Mice; design: species or system mouse
Experimental: Male C3H/He mice 6 to 7 weeks of age were used for this 1 test. The mice were immunized on day 0 with 0.2 ml of 1 ×10^8 washed sheep erythrocytes intravenously. Spleens were removed on day 4 and spleen cells were incubated in the presence of SRBC as described by Cunningham and Szenberg (1968). Tests were evaluated by enumeration of direct generated plaque forming cells in the presence of complement. Suspensions of spleen cells were counted with a Microcellcounter CC-130 (Sysmex, Japan) and PFC results were calculated as PFC/10^6 recovered cells. The FR-900506 substance was administered orally for 4 days starting from the immunization.

[7] = system: Experimental Allergic Encephalomyelytis in SJL/J Mice; assay: Experimental Allergic Encephalomyelitis (EAE) in SJL/J Mice; assay type: in vivo, mouse
[8] = system: Contact-Delayed Hypersensitivity in ICR mice; assay: Contact-Delayed Hypersensitivity in mice (picryl chloride); assay type: in vivo, mouse
Experimental: Female ICR mice were used for this test. A tenth of a 7% (w/v) solution of picryl chloride in ethanol prepared at the time of the experiment was applied to the ventral surface of previously shaved animals. Such a sensitization was performed twice at intervals of 7 days. Seven days later, the thickness of the ears were measured with an ordinary engineer's micrometer and a 1% (w/v) solution of picryl chloride in olive oil was painted to both surfaces of each ear. The inflammation was evaluated 24 hours later by measuring the both of ears. The results were expressed as the average increase in thickness of the ears measured in units of 10 ^−3cm. The FR-900506 substance was injected for 14 days orally, starting from the first sensitization.

[9] = Solubility (physical and chemical properties); assay type: physicochemical

C=CCC1/C=C(\C)CC(C)CC(OC)C2OC(O)(C(=O)C(=O)N3CCCCC3C(=O)OC(/C(C)=C/C3CCC(O)C(OC)C3)C(C)C(O)CC1=O)C(C)CC2OC (stereo not shown) [FR-900506, 17-Allyl-1,14-dihydroxy-12-[2-(4-hydroxy-3-methoxycyclohexyl)-1-methyvinyl]-23-25-dimethoxy-13,19,21,27-tetramethyl-11,28-dioxa-4-azatricyclo[22.3.1.0^4,9]octacos-18-ene-2,3,10,16-tetraone]
Haemagglutination Mean log2 titer ± SE ([1]; 10 mg/kg orally for 5 days): 7.6 ± 0.4
Haemagglutination Mean log2 titer ± SE ([1]; 32 mg/kg orally for 5 days): 6.0 ± 0.45
Haemagglutination Mean log2 titer ± SE ([1]; 100 mg/kg orally for 5 days): 4.4 ± 0.75
ED50 ([1]; Erythrocyte, po, orally for 5 days from one day before immunization to day 3): 16.9 mg/kg
Radioactivities (mean C.P.M. ± S.E.) ([2]; 0.078 ng/ml): 7189 ± 365 C.P.M.
Suppression (%) ([2]; 0.078 ng/ml): 27.6%
Radioactivities (mean C.P.M. ± S.E.) ([2]; 0.156 ng/ml): 5490 ± 431 C.P.M.
Suppression (%) ([2]; 0.156 ng/ml): 44.7%
Radioactivities (mean C.P.M. ± S.E.) ([2]; 0.313 ng/ml): 3880 ± 222 C.P.M.
Suppression (%) ([2]; 0.313 ng/ml): 60.9%
Radioactivities (mean C.P.M. ± S.E.) ([2]; 0.625 ng/ml): 614 ± 57 C.P.M.
Suppression (%) ([2]; 0.625 ng/ml): 93.8%
Radioactivities (mean C.P.M. ± S.E.) ([2]; 1.25 ng/ml): 168 ± 23 C.P.M.
Suppression (%) ([2]; 1.25 ng/ml): 98.3%
Radioactivities (mean C.P.M. ± S.E.) ([2]; 2.5 ng/ml): 54 ± 4 C.P.M.
Suppression (%) ([2]; 2.5 ng/ml): 99.5%
IC50 ([2]; Lymphocyte, mouse MLR, 68 hours, 3H-thymidine): 0.26 ng/mL (≈ 0.323 nM)
Lymphokine production (in words) [3]: inhibited lymphokine production such as interleukin 3 and interferones
ED50 [4]: 19 mg/kg
Incidence of Arthritis ([5]; 3.2 mg/kg per day orally for 14 days): 0/5
Suppression of arthritis induction (in words) ([5]; daily treatment for 14 days): complete suppression of arthritis induction
the dead at dose of 100 mg/kg (ddY mice): could not be observed
PFC/10^6 cells ([6]; 3.2 mg/kg orally for 4 days): 3618 ± 476 PFC/10^6 cells
PFC/10^6 cells ([6]; 10 mg/kg orally for 4 days): 1382 ± 243 PFC/10^6 cells
PFC/10^6 cells ([6]; 32 mg/kg orally for 4 days): 657 ± 41 PFC/10^6 cells
PFC/10^6 cells ([6]; 100 mg/kg orally for 4 days): 278 ± 41 PFC/10^6 cells
ED50 ([6]; Mus musculus, po, 96 h, orally for 4 days starting from the immunization): 5.9 mg/kg
Number of Animals with Disease at Day 24 ([7]; 32 mg/kg orally for 19 days starting on day 0): 0/5
Development of clinical signs of EAE (in words) ([7]; orally for 19 days starting on day 0): clearly prevented the development of clinical signs of EAE
Increase of ears at 24 hours after challenge ([8]; 32 mg/kg orally for 14 days): 6.4 ± 1.6 × 10^−3 cm
Increase of ears at 24 hours after challenge ([8]; 100 mg/kg orally for 14 days): 2.2 ± 1.5 × 10^−3 cm
Solubility ([9]; hexane (n-hexane), petroleum ether): Sparingly Soluble
Solubility ([9]; methanol, ethanol, acetone, ethyl acetate, chloroform, diethyl ether and benzene): Soluble
Solubility ([9]; water): Insoluble
